ChEMBL document CHEMBL1821657, “Tritoniopsins A-D, cladiellane-based diterpenes from the South China Sea nudibranch Tritoniopsis elegans and its prey Cladiella krempfi” (J Nat Prod, 2011)
Active and inactive are the calls of the source. No cut-off for these calls is given here.

Legend:
[1] = tested on: HeLa; test: Cytotoxicity against human HeLa cells assessed as cell growth inhibition after 48 hrs; type: functional, cell-based
[2] = tested on: 3T3-L1; test: Cytotoxicity against mouse 3T3L1 cells assessed as cell growth inhibition after 48 hrs; type: cell-based; details: 3T3-L1, 48 h
[3] = tested on: Caco-2; test: Cytotoxicity against human Caco2 cells assessed as cell growth inhibition after 48 hrs; type: functional, cell-based; details: Caco-2, 48 h
[4] = tested on: C6; test: Cytotoxicity against rat C6 cells assessed as cell growth inhibition after 48 hrs; type: functional, cell-based
[5] = tested on: H9c2; test: Cytotoxicity against rat H9c2 cells assessed as cell growth inhibition after 48 hrs; type: cell-based; details: H9c2, 48 h

C=C1C[C@H]2O[C@H]([C@@H]3[C@@H]4C[C@@H](OC[C@@H]4C)[C@](C)(O)[C@@H]32)[C@](C)(OC(=O)CCC)CC[C@@H]1OO [TRITONIOPSIN B]
growth inhibition (GI) [1]: inactive
IC50 [2]: 40 µM
IC50 [3]: 40 µM
growth inhibition (GI) [4]: inactive
IC50 [5]: 40 µM
